# Tested on: S. pombe yeast cells
# Test: Respirometric assessment of viability of S. pombe yeast cells treated with toxicant (oxygen uptake, phosphorescent oxygen probe)
# Assay type: cell-based
# Details: S. pombe cells incubated with different concentrations of toxicant, aliquots at different time intervals; FIG. 5
# Description: A solid-state oxygen probe comprising a thin film polymer coating of the phosphorescent dye platinum(II)-tetrakis(pentafluorophenyl)porphine (PtTFPP) and polycarbonate was used with the device 1 shown in FIG. 1. One milligram of PtTFPP is dissolved in 0.01% (w/v) solution of polycarbonate (M.ca. 60 000) in chloroform. One microlitre aliquotes of this solution were dispensed to the microwells and allowed to air dry for 10 minutes to produce thin film phosphorescent oxygen-sensitive coating inside the microwells.
# S. pombe yeast cells were incubated with different concentrations of cadmium nitrate toxicant. Two μl aliquots were taken from each sample at different time intervals, and placed in the wells of microwell chambers coated with a PtTFPP-polycarbonate solid-state oxygen probe. The respiration profiles of samples were monitored as described in Example 1 above, together with a control sample containing the same concentration of test cells, but without the presence of a toxicant. The levels of oxygen uptake by each sample is evaluated on the basis of time profiles of the phosphorescent signal (initial slopes), compared to those obtained in the control sample. […] This could be extended to compare cells growing in the presence of necessary growth factors, undergoing survival factor deprivation, or undergoing apoptosis.
smiles,measurement,value
O=[N+]([O-])[O-].O=[N+]([O-])[O-].[Cd+2] [cadmium nitrate],"oxygen uptake / initial slope of phosphorescent signal time profile, compared to control sample (cell viability)",decrease in the initial slope and oxygen uptake with respect to control sample

# Source: patent US7138270B2, “Assay device and method for chemical or biological screening” (University College Cork—National University of Ireland, Cork, priority 2002, dated 2006)
